Source: patent US20250304587A1, “WEE1 INHIBITOR, PREPARATION THEREFOR AND USE THEREOF” (JIANGSU TASLY DIYI PHARMACEUTICAL CO., LTD., priority 2022, published 2025)
Converted amounts (≈) assume the structure as drawn. Read-outs that look alike come from different tables or passages of the source.

Assays:
[1] = Pharmacokinetics on single dose in Beagle dogs (iv and po); assay type: in vivo, male Beagle dogs
Procedure: Pharmacokinetic properties of the drug in male Beagle dogs were evaluated by the same method with in vivo pharmacokinetic study with mice. The basic information is as follows: • Beagle: weighing 8-11 kg, purchased from Jiangsu Marshall Biotechnology Co., Ltd. • Dosage: 2 mg/kg (intravenous injection); 10 mg/kg (oral) • Solvent: 5% DMSO+5% Solutol+90% (20% HP-β-CD in Saline)

[2] = Pharmacokinetics on single dose in mice (iv and po); assay type: in vivo, male ICR mice
Source text: The present experiment aimed to study the pharmacokinetics in the plasma of male ICR mice after the administration. The present experiment aimed to obtain the pharmacokinetic profile of the subject compounds in ICR mice (both intravenous and oral) [table] • Species: SPF grade male ICR mice • Body weight/weekly age: about 30 g • Amount: 6 • Experimental animal source: Charles River • Intravenous solvents: 5% DMSO—10% Solutol-85% HPBCD (20%, WN) • “Gavage solvent/dosage form: 5% DMSO—10% Solutol-85% HPBCD (20%, WN)” • Intravenous: 1 mg/kg in a volume of 5 mL/kg • Gavage: 10 mg/kg in a volume of 10 mL/kg • Ultrasound for 5 min before administration • Intravenous: 0.2 mg/mL • Gavage: 1 mg/mL • Fast overnight before administration and feed four hours after administration. […] The blood samples were stored in a refrigerator at or below −20 C for LC-MS/MS analysis. The samples were detected for drug concentration at each time point by LC-MS/MS. Pharmacokinetic parameters terminal elimination half-life (t½), area under the curve (AUC), apparent volume of distribution (Vd), clearance (CL), mean residence time (MRT), and Cmax were calculated using the non-compailinental model of Phoenix WinNonlin 5.2. Bioavailability (F %) was directly from serum concentration results. Mean standard deviation (X±SD) was used for blood concentration and pharmacokinetic parameters, etc. Specific testing and analytical methods were specified in the form of protocol revisions.

[3] = test system: human colon cancer HT-29 cells xenograft; test: Anti-tumor efficacy, HT-29 xenograft (CDX model); assay type: in vivo, female BALB/c nude mice; conditions: HT-29 model, after 24 days
Procedure: Experimental method: BALB/c nude mice (provided by Charles River) were selected, 7-8 weeks old and weighing 19-22 g.
The prepared and cultured HT-29 cells were counted, and 5×10^6 HT-29 cells were mixed in 0.1 mL PBS solution and inoculated subcutaneously on the right wing of mice. When the cells became tumors and the average tumor volume reached 120 mm^3, they began to be grouped and administered. […] The experimental indicator was to check whether the tumor growth was inhibited. The formula for calculating the tumor volume was: V=0.5a×b^2, where a and b respectively indicated the long and short diameters of the tumor.
The anti-tumor effects of the compounds were evaluated by TGI (%).

[4] = Metabolic stability in liver microsomes, rat; assay type: in vitro ADME
Procedure: Microsomes were taken out from the −80° C. refrigerator, rapidly melted in a 37° C. water bath and placed on ice until ready to use. The test article was diluted with DMSO to prepare a 10 mM stock solution, and then diluted with acetonitrile to a 0.5 mM secondary stock solution. […] NADPH was diluted with Buffer C to a working solution of 6 mM for the starter solution. An acetonitrile solution containing an internal standard was prepared as the precipitant, and Verapamil-HCl was chosen as the internal standard at a concentration of 4 ng/ml. […] A separate plate with pointed bottom wells, noted as a precipitation plate, was added with 135 μL precipitant per well; 0 h samples were transferred to the plate after 10 min incubation and 15 μL of starter solution was added; the plate was placed on ice before centrifugation. The diluted starter solution was added in sufficient quantity to the dispensing plate to facilitate the multichannel pipette aspiration operation. The reaction was carried out on a warm incubation shaker and 15 μL of starter solution/sample is added to the plate using a multichannel pipette. The reaction was mixed with a slight shake to initiate the reaction, which was accurately timed and recorded using a timer; After the reaction time had elapsed, all the solution in the plate was aspirated using the multichannel pipette and added to the precipitation plate to terminate the reaction at that point in time. After all reactions had been terminated, the plates were shaken for ten minutes on a plate shaker at 600 rpm to precipitate the protein. The plate was centrifuged at 4° C. for 15 minutes at maximum rpm. 80 μL of supernatant was taken, 320 μL of pure water was added and mixed for LC-MS analysis.

[5] = Saturated solubility in buffer at different pH; assay type: physicochemical; conditions: for solubility at 24 h: buffer solution, aqueous buffer, thermodynamic from solid
Procedure: The compound was placed in a buffer solution and shaken at constant temperature for 24 h. […] Chromatographic conditions: C18 column, mobile phase A: 0.02 M potassium dihydrogen phosphate:acetonitrile=90:10, mobile phase B: acetonitrile; V: 1.0 ml/min, T: 35° C., λ: 210 nm.

[6] = male, mouse, plasma, ICR mice, iv 1 mg/kg
[7] = male, mouse, plasma, ICR mice, po 10 mg/kg

Structure (SMILES): [2H][C@]1(O)c2nc(-n3c4nc(Nc5ccc(N6CCC7(CCN(C)CC7)CC6)cc5)ncc4c(=O)n3CC=C)ccc2CCC12CC2 [Compound 37b]
- AUClast ([1]; iv 2 mg/kg): 1602 ng·h/mL
- Cl ([1]; iv 2 mg/kg): 21.8 mL/min/kg
- T1/2 ([1]; iv 2 mg/kg): 5.05 h
- Vss ([1]; iv 2 mg/kg): 5.71 L/kg
- AUClast ([1]; po 10 mg/kg): 1816 ng·h/mL
- Cmax ([1]; po 10 mg/kg): 171 ng/mL
- F ([1]; po 10 mg/kg): 22.8%
- T1/2 ([1]; po 10 mg/kg): 4.69 h
- Tmax ([1]; po 10 mg/kg): 2.00 h
- AUClast ([2]; ICR mice, iv 1 mg/kg): 558 ng·h/mL
- C0 ([2]; ICR mice, iv 1 mg/kg): 186 ng/mL
- Cl ([2]; ICR mice, iv 1 mg/kg): 26.3 mL/min/kg
- T1/2 ([2]; ICR mice, iv 1 mg/kg): 2.99 h
- AUClast ([2]; ICR mice, po 10 mg/kg): 1607 ng·h/mL
- Cl ([2]; ICR mice, po 10 mg/kg): 74 mL/min/kg
- Cmax ([2]; ICR mice, po 10 mg/kg): 307 ng/mL
- F ([2]; ICR mice, po 10 mg/kg): 29%
- Tmax ([2]; ICR mice, po 10 mg/kg): 2.67 h
- Pharmacokinetic properties (in words) ([2]; mice, compared with AZD1775): better pharmacokinetic properties than the control compound AZD1775
- TGI ([3]; 30 mg/kg qd): 34.7%
- TGI ([3]; 60 mg/kg qd): 57.7%
- TGI ([3]; 120 mg/kg qd): 100.0%
- T1/2 liver microsomes Rat [4]: >2 h
- Saturated solubility pH 5.0 ([5]; pH 5): 0.37 mg/mL
- Saturated solubility pH 6.5 ([5]; pH 6.5): 0.37 mg/mL
- Saturated solubility pH 7.4 ([5]; pH 7.4): 0.62 mg/mL

Structure (SMILES): C=CCn1c(=O)c2cnc(Nc3ccc(N4CCN(C)CC4)cc3)nc2n1-c1cccc(C(C)(C)O)n1 [AZD1775, reference compound]
- Vss ([1]; iv 2 mg/kg): 3.01 L/kg
- AUC(0-t) ([1]; male, dog, plasma, iv 2 mg/kg): 877 ng·h/mL
- clearance ([1]; male, dog, plasma, iv 2 mg/kg): 44 mL/min/kg
- half-life ([1]; male, dog, plasma, iv 2 mg/kg): 1.03 h
- AUC(0-t) ([1]; male, dog, plasma, po 10 mg/kg): 1620 ng·h/mL
- half-life ([1]; male, dog, plasma, po 10 mg/kg): 2.34 h
- Cmax ([1]; male, dog, plasma, po 10 mg/kg, read-out: Cmax): 405 ng/mL
- Tmax ([1]; male, dog, plasma, po 10 mg/kg, read-out: Tmax): 1.67 h
- F ([1]; po 10 mg/kg): 37.9%
- Cl ([2]; ICR mice, po 10 mg/kg): 446 mL/min/kg
- F ([2]; ICR mice, po 10 mg/kg): 32%
- AUC(0-t) [2, 6]: 116 ng·h/mL
- clearance [2, 6]: 134 mL/min/kg
- half-life [2, 6]: 0.5 h
- C0 ([2]; male, mouse, plasma, ICR mice, iv 1 mg/kg, read-out: C0): 250 ng/mL
- AUC(0-t) [2, 7]: 396 ng·h/mL
- half-life [2, 7]: 0.87 h
- Cmax ([2]; male, mouse, plasma, ICR mice, po 10 mg/kg, read-out: Cmax): 398 ng/mL
- Tmax ([2]; male, mouse, plasma, ICR mice, po 10 mg/kg, read-out: Tmax): 0.42 h
- TGI ([3]; 60 mg/kg qd): 54.5%
- half-life at 1 µM ([4]; read-out: T1/2 liver microsomes Rat): 0.635 h
- solubility at 24 h ([5]; pH 5.0, 37° C., read-out: Saturated solubility pH 5.0): 410 µg/mL (≈ 819 µM)
- solubility at 24 h ([5]; pH 6.5, 37° C., read-out: Saturated solubility pH 6.5): 50 µg/mL (≈ 99.9 µM)
- solubility at 24 h ([5]; pH 7.4, 37° C., read-out: Saturated solubility pH 7.4): 20 µg/mL (≈ 40 µM)
